The values below come from patent US12662451B2, “Chemical compounds and uses thereof” (GLAXOSMITHKLINE INTELLECTUAL PROPERTY (NO.4) LIMITED, priority 2023, dated 2026).

Molecules are shown by their SMILES.

In test [1] the target is T1, recombinant full-length WRN protein (1-1432) (Homo sapiens, UniProt Q14191).
T1 construct: recombinant full-length WRN protein (1-1432)
Kind of test: WRN unwinding activity, fluorogenic 384-well assay (Example A). It counts as biochemical. The settings on record: WRN unwinding activity, 4 hr; Table 2; read-out: 4 hr UNW pIC50 (converted). In a few lines: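 200 pM enzyme (2× stock) preincubated with compound 4 h at ambient temperature, then 200 μM ATP and 12 nM quenched TAMRA-labelled dsDNA (2× stocks) added for 60 min; EDTA-quenched. Buffer 25 mM Tris pH 8.0, 5 mM NaCl, 2 mM MgCl2. Fluorescence at 525/598 nm; pIC50 from four-parameter fit.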

The subject of test [2] is SW48 human colorectal cancer cells (MSI-H cancer cells). In words: SW48 cell viability, CellTiter-Glo, 120 hours (Example B). The following applies: Homo sapiens, SW48, 120 h, read-out: SW48 pCC50, SW48 cell viability, 120 hours incubation (converted); Table 2. On the technique in general: In ATP-based viability assays light output follows the ATP content of the culture.

T1 sequence (Q14191 whole entry): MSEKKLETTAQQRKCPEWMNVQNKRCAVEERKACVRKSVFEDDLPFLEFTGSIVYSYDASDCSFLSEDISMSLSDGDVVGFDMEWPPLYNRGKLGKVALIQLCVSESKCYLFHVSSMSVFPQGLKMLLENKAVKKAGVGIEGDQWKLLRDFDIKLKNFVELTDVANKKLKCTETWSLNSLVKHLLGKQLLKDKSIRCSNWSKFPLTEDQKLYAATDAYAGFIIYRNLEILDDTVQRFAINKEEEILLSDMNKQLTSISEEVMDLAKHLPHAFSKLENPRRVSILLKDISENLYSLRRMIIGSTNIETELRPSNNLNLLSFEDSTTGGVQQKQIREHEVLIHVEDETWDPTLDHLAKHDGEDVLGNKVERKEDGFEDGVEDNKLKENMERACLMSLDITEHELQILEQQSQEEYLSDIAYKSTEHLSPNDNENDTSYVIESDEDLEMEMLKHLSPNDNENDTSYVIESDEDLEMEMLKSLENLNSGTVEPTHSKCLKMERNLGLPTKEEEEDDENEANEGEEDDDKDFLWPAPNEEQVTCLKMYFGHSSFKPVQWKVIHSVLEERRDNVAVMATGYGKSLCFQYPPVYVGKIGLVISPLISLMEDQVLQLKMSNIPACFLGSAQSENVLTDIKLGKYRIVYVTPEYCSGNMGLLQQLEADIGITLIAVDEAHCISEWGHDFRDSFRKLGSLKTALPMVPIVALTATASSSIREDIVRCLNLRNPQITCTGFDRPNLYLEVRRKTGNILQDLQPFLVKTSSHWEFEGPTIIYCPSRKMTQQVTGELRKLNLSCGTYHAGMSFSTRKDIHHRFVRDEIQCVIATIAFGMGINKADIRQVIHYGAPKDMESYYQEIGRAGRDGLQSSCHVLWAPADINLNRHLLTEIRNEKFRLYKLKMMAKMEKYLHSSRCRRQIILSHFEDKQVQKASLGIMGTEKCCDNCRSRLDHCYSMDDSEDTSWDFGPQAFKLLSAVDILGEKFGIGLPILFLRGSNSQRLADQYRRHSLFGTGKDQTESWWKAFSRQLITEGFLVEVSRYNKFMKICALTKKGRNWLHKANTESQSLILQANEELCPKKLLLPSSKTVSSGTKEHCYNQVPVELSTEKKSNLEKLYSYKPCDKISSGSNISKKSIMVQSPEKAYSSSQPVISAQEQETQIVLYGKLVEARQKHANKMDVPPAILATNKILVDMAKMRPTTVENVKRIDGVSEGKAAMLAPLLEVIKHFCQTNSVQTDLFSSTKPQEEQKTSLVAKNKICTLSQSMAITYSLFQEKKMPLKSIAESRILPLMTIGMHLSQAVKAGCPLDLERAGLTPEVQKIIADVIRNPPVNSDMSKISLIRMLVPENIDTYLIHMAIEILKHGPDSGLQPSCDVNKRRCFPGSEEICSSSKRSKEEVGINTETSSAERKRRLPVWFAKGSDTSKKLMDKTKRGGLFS

As for `Cc1oncc1-c1ccc([C@H]2CCC[C@@H](C(=O)Nc3ccc(C(F)(F)F)cc3F)[C@@H]2C(=O)O)cc1` [Example 53, (1R,2R,6S)-2-((2-fluoro-4-(trifluoromethyl)phenyl)carbamoyl)-6-(4-(5-methylisoxazol-4-yl)phenyl)cyclohexane-1-carboxylic acid], the IC50 in test [1] is 15.8 nM. For the same molecule, the CC50 in test [2] was 7940 nM.

As for `N#Cc1ncc(-c2ccc([C@H]3CCC[C@@H](C(=O)Nc4ccc(C(F)(F)F)cc4F)[C@@H]3C(=O)O)cc2)cn1` [Example 54, (1R,2S,6R)-2-(4-(2-cyanopyrimidin-5-yl)phenyl)-6-((2-fluoro-4-(trifluoromethyl)phenyl)carbamoyl)cyclohexane-1-carboxylic acid], in test [1], the IC50 is 5.01 nM. Also, the CC50 in test [2] was 7940 nM.

Regarding `N#Cc1ccc(-c2ccc([C@H]3CCC[C@@H](C(=O)Nc4ccc(C(F)(F)F)cc4F)[C@@H]3C(=O)O)cc2)nn1` [Example 55, (1R,2S,6R)-2-(4-(6-cyanopyridazin-3-yl)phenyl)-6-((2-fluoro-4-(trifluoromethyl)phenyl)carbamoyl) cyclohexane-1-carboxylic acid], the IC50 in test [1] was 2.51 nM. In test [2], the CC50 was 10000 nM.

As for `O=C(O)[C@@H]1[C@@H](c2ccc(C3=CCS(=O)(=O)C3)cc2)CCC[C@H]1C(=O)Nc1ccc(C(F)(F)F)cc1F` [Example 58, (1R,2S,6R)-2-(4-(1,1-dioxido-2,5-dihydrothiophen-3-yl)phenyl)-6-((2-fluoro-4-(trifluoromethyl)phenyl)carbamoyl) cyclohexane-1-carboxylic acid], in test [1], the IC50 was 31.6 nM. Further, in test [2], the CC50 was 15800 nM.

In the case of `CN(c1ccc([C@H]2CCC[C@@H](C(=O)Nc3ccc(C(F)(F)F)cc3F)[C@@H]2C(=O)O)cc1)S(=O)(=O)c1ccc2occc2c1` [Example 93, (1R,2R,6S)-2-((2-fluoro-4-(trifluoromethyl)phenyl)carbamoyl)-6-(4-(N-methylbenzofuran-5-sulfonamido)phenyl)cyclohexane-1-carboxylic acid], the IC50 in test [1] is 2.51 nM. In addition, the CC50 in test [2] is 2510 nM.

For `CN(c1ccc([C@H]2CCC[C@@H](C(=O)Nc3ccc(C(F)(F)F)cc3F)[C@@H]2C(=O)O)cc1)S(=O)(=O)c1cccnc1` [Example 95, (1R,2R,6S)-2-((2-fluoro-4-(trifluoromethyl)phenyl)carbamoyl)-6-(4-(N-methylpyridine-3-sulfonamido)phenyl)cyclohexane-1-carboxylic acid], in test [1], the IC50 is 2.51 nM. For the same molecule, the CC50 in test [2] was 3160 nM.

For `CN(c1ccc([C@H]2CCC[C@@H](C(=O)Nc3ccc(C(F)(F)F)cc3F)[C@@H]2C(=O)O)cc1)S(=O)(=O)c1ccc2oc(=O)n(C)c2c1` [Example 100, (1R,2S,6R)-2-(4-((N,3-dimethyl-2-oxo-2,3-dihydrobenzo[d]oxazole)-5-sulfonamido)phenyl)-6-((2-fluoro-4-(trifluoromethyl)phenyl)carbamoyl)cyclohexane-1-carboxylic acid], the IC50 in test [1] was 5.01 nM. In test [2], the CC50 was 3980 nM.

With `CN(c1ccc([C@H]2CCC[C@@H](C(=O)Nc3ccc(C(F)(F)F)cc3F)[C@@H]2C(=O)O)cc1)S(=O)(=O)c1ccc2nc(O)sc2c1` [Example 102, (1R,2R,6S)-2-((2-fluoro-4-(trifluoromethyl)phenyl)carbamoyl)-6-(4-((2-hydroxy-N-methylbenzo[d]thiazole)-6-sulfonamido)phenyl)cyclohexane-1-carboxylic acid], the IC50 in test [1] is 6.31 nM. Further, in test [2], the CC50 was 10000 nM.

In the case of `Cc1cc(C)c(S(=O)(=O)N(C)c2ccc([C@H]3CCC[C@@H](C(=O)Nc4ccc(C(F)(F)F)cc4F)[C@@H]3C(=O)O)cc2)c(C)c1` [Example 103, (1R,2R,6S)-2-((2-fluoro-4-(trifluoromethyl)phenyl)carbamoyl)-6-(4-((N,2,4,6-tetramethylphenyl)sulfonamido)phenyl)cyclohexane-1-carboxylic acid], in test [1], the IC50 is 1.58 nM. In addition, in test [2], the CC50 was 12600 nM.

With `CN(c1ccc([C@H]2CCC[C@@H](C(=O)Nc3ccc(C(F)(F)F)cc3F)[C@@H]2C(=O)O)cc1)S(=O)(=O)c1c(Cl)cc(C(F)(F)F)cc1Cl` [Example 104, (1R,2S,6R)-2-(4-((2,6-dichloro-N-methyl-4-(trifluoromethyl)phenyl)sulfonamido)phenyl)-6-((2-fluoro-4-(trifluoromethyl)phenyl)carbamoyl)cyclohexane-1-carboxylic acid], the IC50 in test [1] was 39.8 nM. Besides, the CC50 in test [2] was 3980 nM.

On to `CN(c1ccc([C@H]2CCC[C@@H](C(=O)Nc3ccc(C(F)(F)F)cc3F)[C@@H]2C(=O)O)cc1)S(=O)(=O)c1ccc2ocnc2c1` [Example 106, (1R,2R,6S)-2-((2-fluoro-4-(trifluoromethyl)phenyl)carbamoyl)-6-(4-(N-methylbenzo[d]oxazole-5-sulfonamido)phenyl)cyclohexane-1-carboxylic acid], for which, in test [1], the IC50 is 3.16 nM. Also, in test [2], the CC50 was 1580 nM.

On to `CN(c1ccc([C@H]2CCC[C@@H](C(=O)Nc3ccc(C(F)(F)F)cc3F)[C@@H]2C(=O)O)cc1)S(=O)(=O)c1ccc2c(c1)CN(C(=O)C(F)(F)F)CC2` [Example 108, (1R,2R,6S)-2-((2-fluoro-4-(trifluoromethyl)phenyl)carbamoyl)-6-(4-((N-methyl-2-(2,2,2-trifluoroacetyl)-1,2,3,4-tetrahydroisoquinoline)-7-sulfonamido)phenyl)cyclohexane-1-carboxylic acid], for which, in test [1], the IC50 was 3.16 nM. In addition, in test [2], the CC50 is 2000 nM.

For `CN(c1ccc([C@H]2CCC[C@@H](C(=O)Nc3ccc(C(F)(F)F)cc3F)[C@@H]2C(=O)O)cc1)S(=O)(=O)c1ccc2c(c1)CCN(C(=O)C(F)(F)F)C2` [Example 111, (1R,2R,6S)-2-((2-fluoro-4-(trifluoromethyl)phenyl)carbamoyl)-6-(4-((N-methyl-2-(2,2,2-trifluoroacetyl)-1,2,3,4-tetrahydroisoquinoline)-6-sulfonamido)phenyl)cyclohexane-1-carboxylic acid], the IC50 in test [1] is 2.51 nM. Also, in test [2], the CC50 is 1580 nM.

On to `CN1CCc2c(cccc2S(=O)(=O)N(C)c2ccc([C@H]3CCC[C@@H](C(=O)Nc4ccc(C(F)(F)F)cc4F)[C@@H]3C(=O)O)cc2)C1` [Example 114, (1R,2S,6R)-2-(4-((N,2-dimethyl-1,2,3,4-tetrahydroisoquinoline)-5-sulfonamido)phenyl)-6-((2-fluoro-4-(trifluoromethyl)phenyl)carbamoyl)cyclohexane-1-carboxylic acid], for which the IC50 in test [1] was 7.94 nM. For the same molecule, the CC50 in test [2] is 2510 nM.

`CN(c1ccc([C@H]2CCC[C@@H](C(=O)Nc3ccc(C(F)(F)F)cc3F)[C@@H]2C(=O)O)cc1)S(=O)(=O)c1ccc(C2CCN(C(=O)OC(C)(C)C)CC2)cc1` [Example 115, (1R,2S,6R)-2-(4-((3-(1-(tert-butoxycarbonyl)piperidin-4-yl)-N-methylphenyl)sulfonamido)phenyl)-6-((2-fluoro-4-(trifluoromethyl)phenyl)carbamoyl)cyclohexane-1-carboxylic acid]: the IC50 in test [1] was 5.01 nM. Besides, the CC50 in test [2] is 1260 nM.
